Patent publication US20220142169A1, “INHIBITING INSECTICIDE RESISTANCE AND MAKING SUSCEPTIBLE INSECTS HYPER-SUSCEPTIBLE TO PESTICIDES” (priority 2019, published 2022)

How the values were obtained:
[1] = tested on: Drosophila melanogaster DDT-susceptible 91-C strain; experiment: DDT mortality bioassay (glass vial, 24 h) after two days of inhibitor feeding; assay type: in vivo; conditions: for LD50: 24 h; for reduction of level of DDT resistance: optimal rearing condition; for decrease of DDT resistance: sub-optimal rearing condition
Description: (§1) Flies of 1-2 day old (females and males) were introduced into a plastic vial (28 mm×95 mm height) and fed with inhibitors mixed in 5% sucrose solution. […] After fed with inhibitor solutions for two days, 20 females or males from either the 91-R or 91-C strains were used in all DDT bioassays. To explore the effect of inhibitors, fruit flies under two different rearing conditions: optimal rearing condition and sub-optimal rearing condition were used in our study. Under optimal rearing condition, 100 pairs of flies were maintained in bottles (containing 50 ml standard medium) and allowed for laying eggs for four days. All adults were then removed to make sure the suitable density of larva. Differently, adults were not removed until emerging of next generation under sub-optimal rearing condition. Simply, optimal rearing condition provided enough food for flies, but sub-optimal rearing condition faced certain food pressure.
(§2) Briefly, various concentrations of DDT dissolved in acetone were transferred into 20 ml transparent glass vials and each rolled on its side in a fume hood till the acetone evaporated. […] Vials were capped with cotton plugs moistened with a 5% sucrose solution in distilled water. The number of dead flies were recorded after 24 hours.
(§3) For RT-qPCR, statistical analysis was performed using Student's t-test to compare the results between 91-C and 91-R. For glycogen assay and body weight, One-way ANOVA was used, and means comparisons were made by using Student's t test (p<0.05) by using SPSS software (Version 19.0; SPSS Inc., USA). The median lifespan under fed or starvation conditions were calculated using the Probit function in SPSS (Version 19.0; SPSS Inc, USA). For mortality bioassay, Probit analysis was conducted by using SPSS software (Version 19.0; SPSS Inc, USA).

[2] = tested on: Drosophila melanogaster DDT-resistant 91-R strain; experiment: as above; assay type: in vivo; conditions: for LD50: 24 h; for ratio of LD50 optimal / sub-optimal rearing conditions / Resistance Ratio: DDT; for ratio of LD50 optimal / sub-optimal rearing conditions: no inhibitor; for reduction of level of DDT resistance: optimal rearing condition; for decrease of DDT resistance: sub-optimal rearing condition
Description: as §1, §2, §3

GSK3β-PO = conditions: listed beside gene GSK3β-PO; cited from earlier work
Drosophila 91-C strain = experiment: Cypermethrin mortality bioassay (glass vial, 24 h) after inhibitor feeding; assay type: in vivo, Drosophila melanogaster; conditions: for LD50: 24 h
Experimental: (§4) Adult flies were placed in bottles with instant drosophila blue diet (Formula 2-24®, carolina.com) made with inhibitor solutions for two days.
(§5) 200 μl of each concentration of solution as well as 200 μl acetone were transferred into 20 ml transparent glass vials and rolled on its side in a fume hood till the acetone completely evaporated. 20 flies of 91C, 91R and Canton-S stains were placed into vials for either female or male. Vials were capped with cotton plugs moistened with a 5% sucrose solution in distilled water. The number of dead flies were recorded after 24 hours. […] For each strain by sex combination, 8 concentrations of dosage were used including 0 control. A total of 8×3×20 flies were used for each of strain by sex combinations. For mortality bioassay, Probit analysis tool in SAS was used (SAS 9.4, SAS Ins, USA).

[3] = tested on: Drosophila Canton-S strain; experiment: as above; assay type: in vivo, Drosophila melanogaster; conditions: for LD50: 24 h
Experimental: as §4, §5

Drosophila 91-R strain = experiment: as above; assay type: in vivo, Drosophila melanogaster; conditions: for LD50: 24 h
Experimental: as §4, §5

[4] = DDT LD50, 91-C♀, optimal dietary rearing, Hys 10 mM, LiCl 20 mM fed 2 days
[5] = DDT LD50, 91-C♂ (so in the source), sub-optimal dietary rearing
[6] = DDT LD50, 91-C♂, optimal dietary rearing
[7] = DDT LD50, 91-R♀, optimal dietary rearing
[8] = DDT LD50, 91-R♀, sub-optimal dietary rearing
[9] = DDT LD50, 91-R♂, optimal dietary rearing
[10] = DDT LD50, 91-R♂, sub-optimal dietary rearing

Structure (SMILES): Clc1ccc(C(c2ccc(Cl)cc2)C(Cl)(Cl)Cl)cc1 [DDT]
- LD50 [1, 4]: 51.59 μg/vial
- LD50 [1, 5]: 6.77 μg/vial
- LD50 [1, 6]: 19.81 μg/vial
- ratio of LD50 optimal / sub-optimal rearing condition ([1]; DDT, 91-C females, no inhibitor): 7.62
- LD50 [2, 7]: 136883.00 μg/vial
- LD50 [2, 8]: 523.34 μg/vial
- LD50 [2, 9]: 66073.00 μg/vial
- LD50 [2, 10]: 143.70 μg/vial
- ratio of LD50 optimal / sub-optimal rearing conditions ([2]; 91-R females): 261.56
- ratio of LD50 optimal / sub-optimal rearing conditions ([2]; 91-R males): 459.80

Structure (SMILES): NC1=N[C@H]2c3c([nH]c(Br)c3Br)C(=O)N3CCC[C@]23N1 [Dibromocantharelline]
- IC50 (GSK3β-PO): 3 µM

Structure (SMILES): NC1=NC(=O)/C(=C2\CCNC(=O)c3[nH]c(Br)cc32)N1 [Hymenialdesine]
- IC50 (GSK3β-PO): 0.01 µM

Structure (SMILES): NN.O=S(=O)(O)O [Hys, hydrazine sulphate]
- Synergism Ratio (Drosophila 91-C strain; 91-C♀): 4.39
- Synergism Ratio (Drosophila 91-C strain; 91-C♂): 5.73
- Synergism Ratio ([3]; Canton-S ♀): 3.58
- Synergism Ratio ([3]; Canton-S ♂): 3.78
- Synergism Ratio (Drosophila 91-R strain; 91-R♀): 3.87
- Synergism Ratio (Drosophila 91-R strain; 91-R♂): 3.88

Structure (SMILES): [Cl-].[Li+] [LiCl, lithium chloride]
- reduction of level of DDT resistance ([1]; 91-C females): 4.2 fold
- decrease of DDT resistance ([1]; 91-C females): 2.3 fold
- reduction of level of DDT resistance ([1]; 91-C males): 2.7 fold
- decrease of DDT resistance ([1]; 91-C males): 2.3 fold
- LD50 ([1]; DDT LD50, 91-C♀ (so in the source), sub-optimal dietary rearing): 0.94 μg/vial
- LD50 [1, 4]: 12.17 μg/vial
- LD50 [1, 5]: 2.96 μg/vial
- LD50 [1, 6]: 7.22 μg/vial
- Resistance Ratio ([1]; DDT, 91-C♀ (so in the source), sub-optimal rearing): 2.26
- Resistance Ratio ([1]; DDT, 91-C♂ (so in the source), sub-optimal rearing): 2.29
- Resistance Ratio ([1]; DDT, 91-C♂, optimal rearing): 2.74
- Resistance Ratio ([1]; control LD50 vs inhibitor-fed, DDT, 91-C♀, optimal rearing): 4.24
- reduction of level of DDT resistance ([2]; 91-R females): 1.6 fold
- decrease of DDT resistance ([2]; 91-R females): 3.3 fold
- reduction of level of DDT resistance ([2]; 91-R males): 20.5 fold
- decrease of DDT resistance ([2]; 91-R males): no significant decreased in resistance levels
- resistance ratio reduction / decrease of DDT resistance ([2]; 91-R, both sexes, optimal rearing conditions): 1.6-20.5 fold
- LD50 [2, 7]: 83375.00 μg/vial
- LD50 [2, 8]: 157.63 μg/vial
- LD50 [2, 9]: 3224.00 μg/vial
- LD50 [2, 10]: 126.69 μg/vial
- Resistance Ratio ([2]; 91-R♀, optimal rearing): 1.64
- Resistance Ratio ([2]; 91-R♀, sub-optimal rearing): 3.37
- Resistance Ratio ([2]; 91-R♂, optimal rearing): 20.49
- Resistance Ratio ([2]; 91-R♂, sub-optimal rearing): 1.13
- Synergism Ratio (Drosophila 91-C strain; 91-C♀): 4.93
- LD50 (Drosophila 91-C strain; 91-C♀): 0.13 μg/vial
- Synergism Ratio (Drosophila 91-C strain; 91-C♂): 11.92
- LD50 (Drosophila 91-C strain; 91-C♂): 0.03 μg/vial
- Synergism Ratio ([3]; Canton-S ♀): 0.74
- LD50 ([3]; Canton-S ♀, Hys 10 mM, LiCl 20 mM in diet 2 days): 0.78 μg/vial
- Synergism Ratio ([3]; Canton-S ♂): 0.60
- LD50 ([3]; Canton-S ♂): 0.9 μg/vial
- Synergism Ratio (Drosophila 91-R strain; 91-R♀): 4.58
- LD50 (Drosophila 91-R strain; 91-R♀): 0.17 μg/vial
- Synergism Ratio (Drosophila 91-R strain; 91-R♂): 3.36
- LD50 (Drosophila 91-R strain; 91-R♂): 0.08 μg/vial
- IC50 (GSK3β-PO): 2000 µM
